Reference: paper PMC10074544 (Cell chemical biology, 2023)
Counter-ions that a name gives are not always drawn. Values belong to the compound of their own block, whether it stands above or below them. Residues, ends and D or L forms follow the SMILES beside them. *: point of attachment. Cbz = O=C(OCc1ccccc1)*

Columns and labels:
EML4-ALK = EML4-ALK (Homo sapiens, UniProt Q9HC35+Q9UM73); assay: EML4-ALK degradation in NCI-H2228 cells; format: cell-based; settings: for effect of pre-treatment on EML4-ALK degradation induced by 819: NCI-H2228 cells
H1299 lung cancer cells = assay: Cell killing in KEAP1 siRNA- vs control siRNA-treated H1299 cells; format: cell-based, human; settings: 24 h treatment
CDK9 [1] = molecular target: T1, CDK9 (Homo sapiens, UniProt P50750); assay: CDK9 degradation in MOLT4 cells; format: cell-based; settings: for effect of pre-treatment on CDK9 degradation by 955: pre-treatment before 955
CDK10 [2] = molecular target: T2, CDK10 (Homo sapiens, UniProt Q15131); assay: CDK10 degradation in MOLT4 cells; format: cell-based
CDK9 [3] = molecular target: T1, CDK9; assay: TMT-based global proteomics in MOLT4 cells, CDK9; format: cell-based
CDK9 [4] = molecular target: T1, CDK9; assay: CDK9 degradation in KEAP1 knockout / rescued H1299 cells; format: cell-based
V5-TurboID-CDK9 = V5-TurboID-CDK9 (Homo sapiens, UniProt P50750+Q14145); assay: TurboID-bait assay in 293T cells; format: cell-based
c-Myc and MCL-1 [5] = assay: c-Myc and MCL-1 expression in MOLT4 cells; format: cell-based, human; settings: mRNA and protein
purified KEAP1 protein = purified KEAP1 protein (Homo sapiens, UniProt Q14145); assay: Gel-based competitive ABPP assay with IA-alkyne; format: binding; settings: serially diluted compound, purified His-KEAP1
[6] = system: LNCaP prostate cancer cells; assay: Cell killing in KEAP1 siRNA- vs control siRNA-treated LNCaP cells; format: cell-based, human; settings: 24 h treatment
c-Myc and MCL-1 [7] = assay: c-Myc and MCL-1 expression in LNCaP cells; format: cell-based, human
CDK9 [8] = molecular target: T1, CDK9; assay: CDK9 degradation in LNCaP cells; format: cell-based
[9] = system: CDK9-dependent transcription; assay: RNA-seq in MOLT4 cells; format: cell-based, human; settings: 6 h treatment, compared with SNS-032
[10] = molecular target: CDK9:955:KEAP1 ternary complex (Homo sapiens, UniProt P50750+Q14145); assay: NanoBRET ternary complex formation assay in live 293T cells; format: cell-based; settings: HiBit-CDK9 and Halo-KEAP1, 6 h
MOLT4 cells = assay: PARP cleavage; format: cell-based, human; settings: compared with SNS-032
CDK9 [11] = settings: cited from earlier work
DU145 = assay: Viability; format: cell-based, human
22RV1 = assay: Viability; format: cell-based, human
CDK9 [12] = settings: read-out: IC50 CDK9; cited from earlier work
PC3 = assay: Viability; format: cell-based, human
LNCaP = assay: Viability; format: cell-based, human
CDK10 [13] = molecular target: T2, CDK10; settings: MOLT4 lysates; cited from earlier work
[14] = 955 versus 336 with reduced Michael acceptors (Figure 2H)
[15] = PL or SNS-032 alone or their combination (Figure 1E)

T2 sequence (Q15131 whole entry): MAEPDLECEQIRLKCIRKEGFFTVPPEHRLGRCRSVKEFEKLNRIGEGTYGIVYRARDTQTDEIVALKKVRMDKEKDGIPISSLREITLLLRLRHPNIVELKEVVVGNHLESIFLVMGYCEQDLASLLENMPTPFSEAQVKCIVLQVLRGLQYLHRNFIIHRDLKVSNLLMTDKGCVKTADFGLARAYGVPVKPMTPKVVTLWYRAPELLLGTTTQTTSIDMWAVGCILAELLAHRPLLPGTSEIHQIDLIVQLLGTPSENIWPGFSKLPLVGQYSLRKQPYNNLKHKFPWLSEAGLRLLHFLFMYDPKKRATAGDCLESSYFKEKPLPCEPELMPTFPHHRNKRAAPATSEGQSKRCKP
T1 sequence (P50750 whole entry): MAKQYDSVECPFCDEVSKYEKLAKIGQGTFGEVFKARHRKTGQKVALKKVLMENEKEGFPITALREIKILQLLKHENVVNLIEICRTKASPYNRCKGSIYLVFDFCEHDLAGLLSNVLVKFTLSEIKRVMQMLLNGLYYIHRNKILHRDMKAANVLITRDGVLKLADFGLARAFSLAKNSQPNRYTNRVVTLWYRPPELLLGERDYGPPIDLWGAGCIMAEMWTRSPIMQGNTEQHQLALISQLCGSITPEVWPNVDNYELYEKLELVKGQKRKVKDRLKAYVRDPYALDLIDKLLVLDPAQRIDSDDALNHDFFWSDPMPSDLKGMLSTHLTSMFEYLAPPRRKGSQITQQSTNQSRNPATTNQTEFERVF
CDK9:955:KEAP1 ternary complex, sequence (P50750 whole entry): as above
CDK9:955:KEAP1 ternary complex, sequence (Q14145 whole entry): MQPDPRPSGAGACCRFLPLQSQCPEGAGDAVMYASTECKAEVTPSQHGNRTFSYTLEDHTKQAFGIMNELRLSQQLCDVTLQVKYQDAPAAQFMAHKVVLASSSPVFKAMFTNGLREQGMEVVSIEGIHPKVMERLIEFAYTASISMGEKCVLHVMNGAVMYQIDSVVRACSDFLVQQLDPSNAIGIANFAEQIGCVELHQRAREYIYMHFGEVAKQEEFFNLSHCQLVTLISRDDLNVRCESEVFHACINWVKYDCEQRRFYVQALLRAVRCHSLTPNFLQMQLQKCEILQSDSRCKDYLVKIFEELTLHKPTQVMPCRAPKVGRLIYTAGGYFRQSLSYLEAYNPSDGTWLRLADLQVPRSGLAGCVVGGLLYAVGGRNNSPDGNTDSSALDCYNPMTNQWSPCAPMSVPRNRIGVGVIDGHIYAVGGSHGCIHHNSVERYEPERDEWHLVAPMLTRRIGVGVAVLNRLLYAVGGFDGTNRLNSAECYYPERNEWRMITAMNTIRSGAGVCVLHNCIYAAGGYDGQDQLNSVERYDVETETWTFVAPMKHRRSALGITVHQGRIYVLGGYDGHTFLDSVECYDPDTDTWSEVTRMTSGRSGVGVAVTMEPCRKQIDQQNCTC
CDK9:955:KEAP1 ternary complex, sequence (O60563 whole entry partner): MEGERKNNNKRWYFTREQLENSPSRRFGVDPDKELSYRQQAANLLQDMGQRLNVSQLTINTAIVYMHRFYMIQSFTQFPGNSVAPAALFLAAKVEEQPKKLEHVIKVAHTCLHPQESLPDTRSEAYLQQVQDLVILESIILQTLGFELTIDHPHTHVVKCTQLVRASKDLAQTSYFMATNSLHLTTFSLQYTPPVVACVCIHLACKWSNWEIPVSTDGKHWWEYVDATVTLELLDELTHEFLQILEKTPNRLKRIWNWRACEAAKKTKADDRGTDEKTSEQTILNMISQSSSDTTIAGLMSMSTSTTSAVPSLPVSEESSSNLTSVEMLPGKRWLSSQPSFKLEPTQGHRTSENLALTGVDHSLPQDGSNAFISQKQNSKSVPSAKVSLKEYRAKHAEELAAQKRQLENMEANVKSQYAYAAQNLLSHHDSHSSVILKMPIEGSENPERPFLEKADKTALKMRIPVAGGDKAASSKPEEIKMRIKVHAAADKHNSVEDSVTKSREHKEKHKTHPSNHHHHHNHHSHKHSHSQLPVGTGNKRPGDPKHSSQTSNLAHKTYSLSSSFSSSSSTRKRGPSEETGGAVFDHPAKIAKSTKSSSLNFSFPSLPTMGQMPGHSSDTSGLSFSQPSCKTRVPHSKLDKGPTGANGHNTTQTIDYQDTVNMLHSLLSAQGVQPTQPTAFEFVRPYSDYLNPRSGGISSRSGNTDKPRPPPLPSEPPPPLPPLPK
V5-TurboID-CDK9, sequence (P50750 whole entry): as the sequence (P50750 whole entry) above
V5-TurboID-CDK9, sequence (Q14145 whole entry): as the sequence (Q14145 whole entry) above
V5-TurboID-CDK9, sequence (O60563 whole entry partner): as the sequence (O60563 whole entry partner) above
purified KEAP1 protein, sequence (Q14145 whole entry): as the sequence (Q14145 whole entry) above

SMILES: COc1cc(/C=C/C(=O)N2CCC=CC2=O)cc(OC)c1OCC(=O)N1CCC(c2cc(OC(C)C)c(Nc3ncc(Cl)c(Nc4ccccc4S(=O)(=O)C(C)C)n3)cc2C)CC1 [compound 819, (E)-1-(3-(4-(2-(4-(4-((5-chloro-4-((2-(isopropylsulfonyl)phenyl)amino)pyrimidin-2-yl)amino)-5-isopropoxy-2-methylphenyl)piperidin-1-yl)-2-oxoethoxy)-3,5-dimethoxyphenyl)acryloyl)-5,6-dihydropyridin-2(1H)-one]
EML4-ALK degradation (EML4-ALK; NCI-H2228 NSCLC cells): can degrade EML4-ALK in a concentration-dependent manner

SMILES: COc1cc(/C=C/C(=O)N2CCC=CC2=O)cc(OC)c1OCCN1CCN(C(=O)CN2CCC(C(=O)Nc3ncc(SCc4ncc(C(C)(C)C)o4)s3)CC2)CC1 [compound 955, (E)-N-(5-(((5-(tert-butyl)oxazol-2-yl)methyl)thio)thiazol-2-yl)-1-(2-(4-(2-(2,6-dimethoxy-4-(3-oxo-3-(6-oxo-3,6-dihydropyridin-1(2H)-yl)prop-1-en-1-yl)phenoxy)ethyl)piperazin-1-yl)-2-oxoethyl)piperidine-4-carboxamide]
effect of KEAP1 knockdown on cytotoxicity (H1299 lung cancer cells): attenuated the cytotoxicity
time to almost complete degradation of CDK9 (CDK9 [1]; 0.1 μM, time course): ≤ 8 h
CDK9 degradation (CDK9 [1]; [14]): can induce CDK9 degradation
CDK9 degradation (CDK9 [1]; short-term treatment (6 h)): potently degrade CDK9
duration of CDK9 degradation after removal of compound from the culture (CDK9 [1]; washout): up to 18 h
CDK10 degradation (CDK10 [2]): potently degrade CDK10
CDK9 level (global proteome) (CDK9 [3]; 0.1 μM for 1 h and 6 h): significant reduction of CDK9
CDK9 degradation after ectopic expression of Halo-tagged KEAP1 (CDK9 [4]; KEAP1 stable knockout H1299 cells, 0.1 μM, 6 h): rescued CDK9 degradation
CDK9 degradation after depleting KEAP1 (CDK9 [4]; siRNA and CRISPR-Cas9 knock down/out of KEAP1, H1299 cells): blocked
number of E3 ligases whose interaction with CDK9 is induced (V5-TurboID-CDK9; 293T cells expressing V5-TurboID-CDK9): 6 E3 ligases
KEAP1 pulled down (immunoblot of TurboID-bait assay) (V5-TurboID-CDK9; 293T cells, in the presence of biotin, with vs without compound): significantly more KEAP1 can be pulled down
potency relative to SNS-032 in downregulation of c-Myc and MCL-1 expression (c-Myc and MCL-1 [5]): about 10 fold
competition with IA-alkyne for binding to KEAP1 (purified KEAP1 protein): can compete with IA-alkyne to covalently bind to KEAP1 in a concentration-dependent manner
effect of KEAP1 knockdown on cytotoxicity [6]: attenuated the cytotoxicity
c-Myc and MCL-1 expression (c-Myc and MCL-1 [7]): downregulated c-Myc and MCL-1
CDK9 degradation (CDK9 [8]): potently degraded CDK9
downregulation of CDK9-dependent transcription [9]: more potent than SNS-032
formation of CDK9:KEAP1 ternary complex (nanoBRET) [10]: can induce the formation of the CDK9:955:KEAP1 ternary complex in a dose-dependent manner
induction of PARP cleavage (MOLT4 cells): more potent in inducing PARP cleavage than SNS-032

SMILES: CC(C)[C@H](NC(=O)c1ccc2ccccc2n1)C(=O)N[C@@H](CC(=O)O)C(=O)COc1c(F)cccc1F [QVD]
effect of pre-treatment on CDK9 degradation by 955 (CDK9 [1]): does not block

SMILES: COc1cc(CCC(=O)N2CCCCC2=O)cc(OC)c1OCCN1CCN(C(=O)CN2CCC(C(=O)Nc3ncc(SCc4ncc(C(C)(C)C)o4)s3)CC2)CC1 [compound 336, N-(5-(((5-(tert-butyl)oxazol-2-yl)methyl)thio)thiazol-2-yl)-1-(2-(4-(2-(2,6-dimethoxy-4-(3-oxo-3-(2-oxopiperidin-1-yl)propyl)phenoxy)ethyl)piperazin-1-yl)-2-oxoethyl)piperidine-4-carboxamide]
effect of KEAP1 knockdown on cytotoxicity (H1299 lung cancer cells): no significant effect
CDK9 degradation (CDK9 [1]; [14]): does not induce CDK9 degradation
effect of KEAP1 knockdown on cytotoxicity [6]: no significant effect
formation of CDK9:KEAP1 ternary complex (nanoBRET) [10]: negligible

SMILES: CC(C)(C)c1cnc(CSc2cnc(NC(=O)C3CCN(CC(=O)NCCOCCOCCOCCNc4cccc5c4C(=O)N(C4CCC(=O)NC4=O)C5=O)CC3)s2)o1 (stereo not drawn) [THAL-SNS-032]
selectivity of degradation among SNS-032 targets (CDK9 [11]): could only degrade CDK9 but not other known SNS-032 targets

SMILES: CC1(C)CC[C@]2(C(=O)n3ccnc3)CC[C@]3(C)[C@H](C(=O)C=C4[C@@]5(C)C=C(C#N)C(=O)C(C)(C)[C@@H]5CC[C@]43C)[C@@H]2C1 [CDDO-IM]
effect of pre-treatment on CDK9 degradation by 955 (CDK9 [1]): blocks

SMILES: CO/C1=C\C(C)=C\[C@@H](C)[C@@H](O)[C@@H](C)C/C(C)=C/C=C/[C@H](OC)[C@@H]([C@@H](C)[C@@H](O)[C@H](C)[C@@]2(O)C[C@@H](O)[C@H](C)[C@@H](C(C)C)O2)OC1=O [Baf-A1]
effect of pre-treatment on CDK9 degradation by 955 (CDK9 [1]): does not block

SMILES: CCN(CC)CCCC(C)Nc1ccnc2cc(Cl)ccc12 (stereo not drawn) [chloroquine]
effect of pre-treatment on CDK9 degradation by 955 (CDK9 [1]): does not block

SMILES: COc1cc(/C=C/C(=O)N2CCC=CC2=O)cc(OC)c1OC [PL, (E)-1-(3-(3,4,5-trimethoxyphenyl)acryloyl)-5,6-dihydropyridin-2(1H)-one]
anti-proliferative effect (DU145; DU145, within 3 μM): no anti-proliferative effect
anti-proliferative effect (22RV1; 22RV1, within 3 μM): no anti-proliferative effect
CDK9 degradation (CDK9 [1]; [15]): none of these treatments degraded CDK9
effect of pre-treatment on CDK9 degradation by 955 (CDK9 [1]): blocks
anti-proliferative effect (PC3; PC3, within 3 μM): no anti-proliferative effect
anti-proliferative effect (LNCaP; within 3 μM): no anti-proliferative effect

SMILES: COC(=O)[C@]12CCC(C)(C)C[C@H]1[C@H]1C(=O)C=C3[C@@]4(C)C=C(C#N)C(=O)C(C)(C)[C@@H]4CC[C@@]3(C)[C@]1(C)CC2 [CDDO-ME]
effect of pre-treatment on CDK9 degradation by 955 (CDK9 [1]): blocks

SMILES: CC(C)C[C@H](NC(=O)[C@H](Cc1ccccc1)NC(=O)c1cnccn1)B(O)O [bortezomib]
effect of pre-treatment on CDK9 degradation by 955 (CDK9 [1]): blocks

SMILES: COC(=O)/C=C/C(=O)OC [DMF, dimethyl fumarate]
effect of pre-treatment on CDK9 degradation by 955 (CDK9 [1]): blocks
effect of pre-treatment on EML4-ALK degradation induced by 819 (EML4-ALK): blocks

SMILES: CC(C)C[C@@H](C=O)NC(=O)[C@H](CC(C)C)NC(=O)[C@H](CC(C)C)NC(=O)OCc1ccccc1 [MG132] (Cbz-Leu-Leu-Leu-aldehyde)
effect of pre-treatment on CDK9 degradation by 955 (CDK9 [1]): blocks
effect of pre-treatment on CDK10 degradation induced by 955 (CDK10 [2]): blocks
effect of pre-treatment on EML4-ALK degradation induced by 819 (EML4-ALK): blocks

Continued, in another order:

effect of pre-treatment on CDK9 degradation by 955 (CDK9 [1]): blocks
SMILES: CCOC(=O)c1ccc(N2NC(=O)/C(=C/c3ccc([N+](=O)[O-])o3)C2=O)cc1 [PYR-41]

EC50 (DU145; Homo sapiens, DU-145, 72 h, read-out: EC50 (antiproliferative)): > 100 nM
EC50 (22RV1; Homo sapiens, 22Rv1, 72 h, read-out: EC50 (antiproliferative)): > 100 nM
CDK9 degradation (CDK9 [1]; [15]): none of these treatments degraded CDK9
effect of pre-treatment on CDK9 degradation by 955 (CDK9 [1]): blocks
CDK9 degradation (CDK9 [1]; short-term treatment (6 h)): could not
CDK10 degradation (CDK10 [2]): no effect
CDK9 level (global proteome) (CDK9 [3]; 1 μM for 6 h): no significant effect
EC50 (PC3; Homo sapiens, PC-3, 72 h, read-out: EC50 (antiproliferative)): > 100 nM
EC50 (LNCaP; Homo sapiens, 72 h, read-out: EC50 (antiproliferative)): > 100 nM
SMILES: CC(C)(C)c1cnc(CSc2cnc(NC(=O)C3CCNCC3)s2)o1 [SNS-032, N-(5-(((5-(tert-butyl)oxazol-2-yl)methyl)thio)thiazol-2-yl)piperidine-4-carboxamide]
effect of KEAP1 knockdown on cytotoxicity (H1299 lung cancer cells): no significant effect
effect of KEAP1 knockdown on cytotoxicity [6]: no significant effect
binding to CDK10 (CDK10 [13]): moderate binding

effect of pre-treatment on CDK9 degradation by 955 (CDK9 [1]): blocks
SMILES: NS(=O)(=O)OC[C@H]1C[C@@H](Nc2ccnc3cc(-c4cccc(SC(F)(F)F)c4)nn23)[C@H](O)[C@@H]1O [TAK-243]

effect of pre-treatment on CDK9 degradation by 955 (CDK9 [1]): blocks
effect of pre-treatment on CDK10 degradation induced by 955 (CDK10 [2]): blocks
effect of pre-treatment on EML4-ALK degradation induced by 819 (EML4-ALK): blocks
SMILES: NS(=O)(=O)OC[C@@H]1C[C@@H](n2ccc3c(N[C@H]4CCc5ccccc54)ncnc32)C[C@@H]1O [MLN4924]
